Test results published in PMC4767141, “Discovery of Potent, Orally Bioavailable, Small-Molecule Inhibitors of WNT Signaling from a Cell-Based Pathway Screen” (Journal of Medicinal Chemistry, 2015).
Read-outs that look alike come from different tables or passages of the source.

Tests used:
[1] = pKa of the pyridine nitrogen; format: physicochemical; conditions: measured at Cyprotex
Procedure: [32] pKa measurement was conducted at Cyprotex according to their published protocol: .

[2] = Caco-2 Papp determination; format: in vitro ADME, human
CYP450 2D6 = CYP450 2D6 (Homo sapiens, UniProt P10635); assay: CYP450 inhibition; format: in vitro ADME
CYP450 2D6, sequence (P10635 whole entry): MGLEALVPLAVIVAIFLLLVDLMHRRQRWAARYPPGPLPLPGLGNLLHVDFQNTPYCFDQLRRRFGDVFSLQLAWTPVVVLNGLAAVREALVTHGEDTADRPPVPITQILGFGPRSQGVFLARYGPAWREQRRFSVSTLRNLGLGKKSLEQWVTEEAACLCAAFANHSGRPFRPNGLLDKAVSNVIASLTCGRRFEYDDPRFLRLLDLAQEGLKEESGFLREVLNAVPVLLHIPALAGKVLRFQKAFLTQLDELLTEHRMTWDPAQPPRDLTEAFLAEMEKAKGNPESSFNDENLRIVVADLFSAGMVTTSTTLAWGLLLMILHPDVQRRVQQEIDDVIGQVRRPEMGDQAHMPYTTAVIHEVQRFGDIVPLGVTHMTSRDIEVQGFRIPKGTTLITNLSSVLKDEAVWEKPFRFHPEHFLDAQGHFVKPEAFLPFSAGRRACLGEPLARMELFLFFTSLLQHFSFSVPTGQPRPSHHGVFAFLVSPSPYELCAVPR

CYP450 1A2 = CYP450 1A2 (Homo sapiens, UniProt P05177); assay: CYP450 inhibition
CYP450 1A2, sequence (P05177 whole entry): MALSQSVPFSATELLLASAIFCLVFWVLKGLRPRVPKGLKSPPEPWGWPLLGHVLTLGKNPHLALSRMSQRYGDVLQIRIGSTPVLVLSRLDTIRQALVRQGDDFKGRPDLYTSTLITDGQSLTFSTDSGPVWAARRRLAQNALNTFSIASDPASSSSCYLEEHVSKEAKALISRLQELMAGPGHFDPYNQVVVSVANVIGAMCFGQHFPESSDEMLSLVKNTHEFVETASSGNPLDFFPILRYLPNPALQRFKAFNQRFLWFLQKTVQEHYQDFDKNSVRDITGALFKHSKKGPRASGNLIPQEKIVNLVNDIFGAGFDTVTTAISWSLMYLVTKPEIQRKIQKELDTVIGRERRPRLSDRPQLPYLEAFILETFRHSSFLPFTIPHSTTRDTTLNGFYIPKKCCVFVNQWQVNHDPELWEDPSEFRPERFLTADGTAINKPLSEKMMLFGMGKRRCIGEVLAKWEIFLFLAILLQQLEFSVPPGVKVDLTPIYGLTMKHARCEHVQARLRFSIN

CYP450 2C9 = CYP450 2C9 (Homo sapiens, UniProt P11712); assay: CYP450 inhibition; format: in vitro ADME
CYP450 2C9, sequence (P11712 whole entry): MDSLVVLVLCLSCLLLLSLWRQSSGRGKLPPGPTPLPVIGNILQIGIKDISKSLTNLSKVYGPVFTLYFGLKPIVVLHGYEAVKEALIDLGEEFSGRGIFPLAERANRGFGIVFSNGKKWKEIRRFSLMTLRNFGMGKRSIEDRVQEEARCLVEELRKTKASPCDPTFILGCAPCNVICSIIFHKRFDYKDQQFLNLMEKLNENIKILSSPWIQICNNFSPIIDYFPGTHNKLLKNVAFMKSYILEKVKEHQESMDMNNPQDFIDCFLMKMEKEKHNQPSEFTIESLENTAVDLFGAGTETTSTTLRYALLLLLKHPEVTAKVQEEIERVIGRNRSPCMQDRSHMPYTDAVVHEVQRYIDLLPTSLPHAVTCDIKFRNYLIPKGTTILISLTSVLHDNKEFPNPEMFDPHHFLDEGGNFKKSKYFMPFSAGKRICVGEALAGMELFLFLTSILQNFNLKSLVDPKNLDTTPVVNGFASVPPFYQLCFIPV

CYP450 2B8 = CYP450 2B8 (Homo sapiens, UniProt P20813); assay: CYP450 inhibition
CYP450 2B8, sequence (P20813 whole entry): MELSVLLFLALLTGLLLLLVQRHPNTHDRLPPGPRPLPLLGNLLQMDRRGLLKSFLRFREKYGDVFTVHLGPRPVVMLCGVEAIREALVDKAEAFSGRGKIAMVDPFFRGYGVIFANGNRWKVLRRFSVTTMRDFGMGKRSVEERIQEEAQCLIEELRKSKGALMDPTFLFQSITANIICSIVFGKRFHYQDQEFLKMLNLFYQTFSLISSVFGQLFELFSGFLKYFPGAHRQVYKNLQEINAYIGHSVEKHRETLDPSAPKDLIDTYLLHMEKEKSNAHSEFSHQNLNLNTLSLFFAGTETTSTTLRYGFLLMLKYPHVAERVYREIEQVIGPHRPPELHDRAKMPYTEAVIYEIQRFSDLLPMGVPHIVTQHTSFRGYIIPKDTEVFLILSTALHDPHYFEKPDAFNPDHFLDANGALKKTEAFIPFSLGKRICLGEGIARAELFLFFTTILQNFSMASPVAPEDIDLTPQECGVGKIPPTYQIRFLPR

CYP450 2C19 = CYP450 2C19 (Homo sapiens, UniProt P33261); assay: CYP450 inhibition; format: in vitro ADME
CYP450 2C19, sequence (P33261 whole entry): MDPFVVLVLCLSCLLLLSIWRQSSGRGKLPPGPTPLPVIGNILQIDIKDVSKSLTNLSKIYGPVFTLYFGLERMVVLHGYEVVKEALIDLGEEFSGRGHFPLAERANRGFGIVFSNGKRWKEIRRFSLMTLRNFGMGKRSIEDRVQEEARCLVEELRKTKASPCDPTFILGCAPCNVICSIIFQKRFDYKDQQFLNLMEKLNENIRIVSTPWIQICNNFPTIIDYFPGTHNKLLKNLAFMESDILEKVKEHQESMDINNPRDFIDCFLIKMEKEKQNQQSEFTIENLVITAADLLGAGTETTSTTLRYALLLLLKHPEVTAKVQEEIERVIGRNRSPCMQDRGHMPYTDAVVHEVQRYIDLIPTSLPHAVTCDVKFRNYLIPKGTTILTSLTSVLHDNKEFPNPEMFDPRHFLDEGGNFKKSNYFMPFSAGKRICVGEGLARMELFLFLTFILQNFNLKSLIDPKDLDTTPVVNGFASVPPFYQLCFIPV

In vivo mouse PK = conditions: iv dosing
Clint determination [3] = format: in vitro ADME; conditions: mouse, microsomes, pH 7.4, mouse microsomes, read-out: Clint (μL/min/mg) Mouse
Clint determination [4] = format: in vitro ADME; conditions: human, microsomes, pH 7.4, human microsomes, read-out: Clint (μL/min/mg) Human
Clint determination [5] = format: in vitro ADME; conditions: rat, microsomes, pH 7.4, rat microsomes, read-out: Clint (μL/min/mg) Rat
[6] = Aqueous (thermodynamic) solubility; format: physicochemical; conditions: phosphate buffer pH 7.4

`c1cc(N2CCCCC2)ccn1` [4-(piperidin-1-yl)pyridine] showed a pKa [1] of 9.42.
For `NC(=O)C1CCN(c2c(Cl)cncc2Cl)CC1` [Compound 9, 1-(3,5-Dichloropyridin-4-yl)piperidine-4-carboxamide], the “Caco-2 efflux (efflux ratio, ER)” value [2] was “no efflux”, the Papp at 2 h, 1 μM ([2]; human, Caco-2, 1 μM, pH 7.4) was 36 ×10⁻⁶ cm/s and the IC50 (CYP450 2D6) was > 20 µM. For the same compound, the IC50 (CYP450 1A2) was > 20 µM, the IC50 (CYP450 2C9) was > 20 µM and the IC50 (CYP450 2B8) was > 20 µM. For the same compound, the IC50 (CYP450 2C19) was > 20 µM.
In the case of `NC(=O)C1CCN(c2c(Cl)cncc2-c2ccc(N3CCOCC3)cc2)CC1` [Compound 38, 1-(3-Chloro-5-(4-morpholin-4-ylphenyl)pyridin-4-yl)piperidine-4-carboxamide], the in vivo clearance (In vivo mouse PK) is reported as “greater than liver blood flow”.
For `O=C1NCCC12CCN(c1c(Cl)cncc1-c1ccc(N3CCOCC3)cc1)C2` (centres unmarked) [Compound 52], the microsomal CLint at 1 μM (Clint determination [3]) was 827 µL/min/mg and the microsomal CLint at 1 μM (Clint determination [4]) was 335 µL/min/mg.
Work on `O=C1CC2(CCN(c3c(Cl)cncc3-c3ccc(N4CCOCC4)cc3)CC2)C(=O)N1` [Compound 54, 8-(3-Chloro-5-(4-morpholin-4-ylphenyl)pyridin-4-yl)-2,8-diazaspiro[4.5]decan-1,3-dione] yielded a microsomal CLint at 1 μM (Clint determination [3]) of 54 µL/min/mg, a microsomal CLint at 1 μM (Clint determination [4]) of 67 µL/min/mg and a microsomal CLint at 1 μM (Clint determination [5]) of 23 µL/min/mg.
In the case of `O=C1NCCC12CCN(c1c(Cl)cncc1-c1ccc(N3CCCCC3)cc1)CC2` [Compound 65], the microsomal CLint at 1 μM (Clint determination [3]) is reported as > 1000 µL/min/mg.
For `O=C1NCCC12CCN(c1c(Cl)cncc1-c1ccc(-c3ccncc3)cc1)CC2` [Compound 69], the microsomal CLint at 1 μM (Clint determination [4]) was 100 µL/min/mg.
For `Cn1cc(-c2ccc(-c3cncc(Cl)c3N3CCC4(CC3)CC(=O)NC4=O)cc2)cn1` [Compound 81, 8-(3-Chloro-5-(4-(1-methyl-1H-pyrazol-4-yl)phenyl)pyridin-4-yl)-2,8-diazaspiro[4.5]decane-1,3-dione], the solubility [6] was < 1 µg/mL.
